# Test results taken from patent US6750034B1, “DNA encoding human serine protease D-G” (Ortho-McNeil Pharmaceutical, Inc., priority 2000, dated 2004).
# [ ]: non-standard residue; d: D form. The star is where a group is joined. pNA = O=[N+]([O-])c1ccc(N*)cc1; Cbz = O=C(OCc1ccccc1)*
# Target: T1, activated protease D-G-6×HIS (Homo sapiens, UniProt Q9NRS4)
# T1 construct: enterokinase cleavage site from human trypsinogen I (EK) (N, cleaved yes); made in house; host or cells: Sf9 insect cells, baculovirus (pFastBac 1)
# Assay: Chromogenic (amidolytic) assay, release of pNA from synthetic substrates
# Assay type: biochemical
# Conditions: recombinant activated protease D-G-6×HIS; substrate 500 uM; 10 mM TRIS-HCl pH 7.8, 25 mM NaCl, 25 mM imidazole; 37° C., 120 min, 405 nm; N.A. = No Activity
# Procedure: Amidolytic activities of the activated serine proteases are monitored by release of para-nitroaniline (pNA) from synthetic substrates that are commercially available (Bachem California Inc., Torrance, […].; American Diagnostica Inc., Greenwich, Conn.; Kabi Pharmacia Hepar Inc., Franklin, Ohio). Assay mixtures contain chromogenic substrates in 500 uM and 10 mM TRIS-HCl (pH 7.8), 25 mM NaCl, and 25 mM imidazole. Release of pNA is measured over 120 min at 37° C. on a micro-plate reader (Molecular Devices, Menlo Park, Calif.) with a 405 nm absorbance filter. The initial reaction rates (Vmax, mOD/min) are determined from plots of absorbance versus time using Softmax (Molecular Devices, Menlo Park, Calif.). The specific activities (nmole pNA produced/min/ug protein) of the activated protease D-G-6×HIS for the various substrates are presented in Table 1.
# Table 1—The specific activity (nmole pNA produced/min/ug protein) of recombinant activated protease D-G-6×HIS, determined for the various substrates analyzed, is shown.
# T1 sequence (Q9NRS4 205-434 limits assumed): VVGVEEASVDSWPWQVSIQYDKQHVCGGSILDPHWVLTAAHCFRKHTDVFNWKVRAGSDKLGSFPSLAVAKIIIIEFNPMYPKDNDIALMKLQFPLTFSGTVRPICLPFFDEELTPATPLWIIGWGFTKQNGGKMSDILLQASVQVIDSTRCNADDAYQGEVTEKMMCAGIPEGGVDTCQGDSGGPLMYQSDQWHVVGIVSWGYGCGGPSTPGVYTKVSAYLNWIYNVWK
row,Substance,Specific Activity
1,H-[dV]-Leu-Lys-pNA,0.034 ± 0.003 nmole pNA produced/min/ug protein
2,H-D-Pro-HHT-Arg-pNA,0.046 ± 0.001 nmole pNA produced/min/ug protein
3,Cbz-Phe-Arg-pNA,0.116 ± 0.006 nmole pNA produced/min/ug protein
4,H-[dV]-Leu-Arg-pNA,0.025 ± 0.003 nmole pNA produced/min/ug protein
5,H-D-LYS(CBO)-Pro-Arg-pNA,0.076 ± 0.008 nmole pNA produced/min/ug protein
